Assay results reported in patent US20240384350A1, “METHODS OF TREATING CANCER WITH KINASE INHIBITORS” (BOARD OF REGENTS, THE UNIVERSITY OF TEXAS SYSTEM, priority 2021, published 2024).

Tests used:
Test in all cases: Ba/F3 drug screening, Cell Titer Glo, IC50 Mut/WT
Assay type in all cases: cell-based
EGFR Ex19del G796S = biological target: T1, EGFR Ex19del G796S (Homo sapiens, UniProt P00533, DEL746-750/G796S)
T1 construct: expressed in transfected cells; host or cells: Ba/F3
Experimental: (§1) Data represent the ratio of the IC50 value for a given TKI for cells with a PACC EGFR mutation to the IC50 value for cells with wildtype EGFR.
(§2) Ba/F3 cell generation, drug screening, and IC50 approximations. Ba/F3 cells were obtained as a gift from Dr. Gordon Mills (MD Anderson Cancer Center), and maintained in RPMI (Sigma) containing 10% FBS, 1% penicillin/streptomycin, and 10 ng/ml recombinant mIL-3 (R&D Biosystems). To establish stable Ba/F3 cell lines, Ba/F3 cells were transduced with retroviruses containing mutant EGFR plasmids for 12-24 hours.
(§3) After 48-72 hours of transduction, 2 μg/ml puromycin (Invitrogen) was added to Ba/F3 cell lines in complete RPMI. To select for EGFR positive cell lines, cells were stained with PE-EGFR (Biolegend) and sorted by FACS. After sorting, EGFR positive cells were maintained in RPMI containing 10% FBS, 1% penicillin/streptomycin, and 1 ng/ml EGF to support cell viability. Drug screening was performed as previously described^41,42. Shortly, cells were plated in 384-well plates (Greiner Bio-One) at 2000-3000 cells per well in technical triplicate. Seven different concentrations of TKIs or DMSO vehicle were added to reach a final volume of 40 μL per well. After 72 hours, 11 μL of Cell Titer Glo (Promega) was added to each well. Plates were incubated for a minimum of 10 minutes, and bioluminescence was determined using a FLUOstar OPTIMA plate reader (BMG LABTECH). Raw bioluminescence values were normalized to DMSO control treated cells, and values were plotted in GraphPad Prism. […] Drug screens were performed in technical triplicate on each plate and either duplicate or triplicate biological replicates.

EGFR Ex19del G724S = biological target: T2, EGFR Ex19del G724S (Homo sapiens, UniProt P00533, DEL746-750/G724S)
T2 construct: expressed in transfected cells; host or cells: Ba/F3

EGFR G719A L861Q = biological target: T3, EGFR G719A L861Q (Homo sapiens, UniProt P00533, G719A/L861Q)
T3 construct: expressed in transfected cells; host or cells: Ba/F3

EGFR L858R/T790M = biological target: T4, EGFR L858R/T790M (Homo sapiens, UniProt P00533, L858R/T790M); details: T790M-like-3S, 72 hours
T4 construct: expressed in transfected cells; host or cells: Ba/F3

EGFR L858R/T790M/C797S = biological target: T5, EGFR L858R/T790M/C797S (Homo sapiens, UniProt P00533, C797S/L858R/T790M); details: T790M-like-3R, 72 hours
T5 construct: expressed in transfected cells; host or cells: Ba/F3

EGFR A763insFQEA = biological target: T6, EGFR A763insFQEA (Homo sapiens, UniProt P00533, INS763FQEA); details: Classical-Like, 72 hours
T6 construct: expressed in transfected cells; host or cells: Ba/F3 cells, retroviral pBabe-Puro vector
Experimental: (§4) Data represent the ratio of the IC50 value for a given TKI for cells with a classical-like EGFR mutation to the IC50 value for cells with wildtype EGFR.
as §2
(§5) After 48-72 hours of transduction, 2 μg/ml puromycin (Invitrogen) was added to Ba/F3 cell lines in complete RPMI. To select for EGFR positive cell lines, cells were stained with PE-EGFR (Biolegend) and sorted by FACS. After sorting, EGFR positive cells were maintained in RPMI containing 10% FBS, 1% penicillin/streptomycin, and 1 ng/ml EGF to support cell viability. […] Shortly, cells were plated in 384-well plates (Greiner Bio-One) at 2000-3000 cells per well in technical triplicate. Seven different concentrations of TKIs or DMSO vehicle were added to reach a final volume of 40 μL per well. After 72 hours, 11 μL of Cell Titer Glo (Promega) was added to each well. Plates were incubated for a minimum of 10 minutes, and bioluminescence was determined using a FLUOstar OPTIMA plate reader (BMG LABTECH). Raw bioluminescence values were normalized to DMSO control treated cells, and values were plotted in GraphPad Prism. […] Drug screens were performed in technical triplicate on each plate and either duplicate or triplicate biological replicates.

EGFR S768I V774M = biological target: T7, EGFR S768I V774M (Homo sapiens, UniProt P00533, S768I/V774M)
T7 construct: host or cells: Ba/F3

EGFR Ex19del T790M L718V = biological target: T8, EGFR Ex19del T790M L718V (Homo sapiens, UniProt P00533, DEL746-750/L718V/T790M); details: T790M-like-3S, 72 hours
T8 construct: expressed in transfected cells; host or cells: Ba/F3

EGFR L861R = biological target: T9, EGFR L861R (Homo sapiens, UniProt P00533, L861R); details: Classical-Like, 72 hours
T9 construct: expressed in transfected cells; host or cells: Ba/F3 cells, retroviral pBabe-Puro vector (vector made by GeneScript from EGFR WT)

EGFR R776H = biological target: T10, EGFR R776H (Homo sapiens, UniProt P00533, R776H)
T10 construct: host or cells: Ba/F3

EGFR I740dupIPVAK = system: EGFR I740dupIPVAK
EGFR L833F = biological target: T11, EGFR L833F (Homo sapiens, UniProt P00533, L833F); details: Classical-Like, 72 hours
T11 construct: expressed in transfected cells; host or cells: Ba/F3 cells, retroviral pBabe-Puro vector

EGFR L858R = biological target: T12, EGFR L858R (Homo sapiens, UniProt P00533, L858R); details: Classical-Like, 72 hours
T12 construct: expressed in transfected cells; host or cells: Ba/F3 cells, retroviral pBabe-Puro vector
Experimental: as §4, §2, §5

EGFR E709_T710del insD = biological target: T13, EGFR E709_T710del insD (Homo sapiens, UniProt P00533, DEL709-709/T710D)
T13 construct: expressed in transfected cells; host or cells: Ba/F3
Experimental: as §1, §2, §3

EGFR T725M = biological target: T14, EGFR T725M (Homo sapiens, UniProt P00533, T725M); details: Classical-Like, 72 hours
T14 construct: expressed in transfected cells; host or cells: Ba/F3 cells, retroviral pBabe-Puro vector (vector made by GeneScript from EGFR WT)

EGFR L718Q T790M = biological target: T15, EGFR L718Q T790M (Homo sapiens, UniProt P00533, L718Q/T790M); details: T790M-like-3R, 72 hours
T15 construct: expressed in transfected cells; host or cells: Ba/F3

EGFR G719A T790M = biological target: T16, EGFR G719A T790M (Homo sapiens, UniProt P00533, G719A/T790M); details: T790M-like-3S, 72 hours
T16 construct: expressed in transfected cells; host or cells: Ba/F3

EGFR L858R L718Q = biological target: T17, EGFR L858R L718Q (Homo sapiens, UniProt P00533, L718Q/L858R)
T17 construct: host or cells: Ba/F3
Experimental: as §1, §2, §3

EGFR L718Q = biological target: T18, EGFR L718Q (Homo sapiens, UniProt P00533, L718Q)
T18 construct: expressed in transfected cells; host or cells: Ba/F3

EGFR Ex19del = biological target: T19, EGFR Ex19del (Homo sapiens, UniProt P00533, DEL746-750); details: Classical-Like, 72 hours
T19 construct: expressed in transfected cells; host or cells: Ba/F3 cells, retroviral pBabe-Puro vector

EGFR L858R T790M L718V = biological target: T20, EGFR L858R T790M L718V (Homo sapiens, UniProt P00533, L718V/L858R/T790M); details: T790M-like-3R, 72 hours
T20 construct: expressed in transfected cells; host or cells: Ba/F3

EGFR Ex19del T790M C797S = biological target: T21, EGFR Ex19del T790M C797S (Homo sapiens, UniProt P00533, C797S/DEL746-750/T790M); details: T790M-like-3R, 72 hours
T21 construct: expressed in transfected cells; host or cells: Ba/F3
Experimental: Data represent the ratio of the IC50 value for a given TKI for cells with a T790M-like-3R EGFR mutation to the IC50 value for cells with wildtype EGFR.
as §2
After 48-72 hours of transduction, 2 μg/ml puromycin (Invitrogen) was added to Ba/F3 cell lines in complete RPMI. To select for EGFR positive cell lines, cells were stained with PE-EGFR (Biolegend) and sorted by FACS. After sorting, EGFR positive cells were maintained in RPMI containing 10% FBS, 1% penicillin/streptomycin, and 1 ng/ml EGF to support cell viability. […] Shortly, cells were plated in 384-well plates (Greiner Bio-One) at 2000-3000 cells per well in technical triplicate. Seven different concentrations of TKIs or DMSO vehicle were added to reach a final volume of 40 μL per well. After 72 hours, 11 μL of Cell Titer Glo (Promega) was added to each well. Plates were incubated for a minimum of 10 minutes, and bioluminescence was determined using a FLUOstar OPTIMA plate reader (BMG LABTECH). Raw bioluminescence values were normalized to DMSO control treated cells, and values were plotted in GraphPad Prism. […] Drug screens were performed in technical triplicate on each plate and either duplicate or triplicate biological replicates. […] Statistical differences between groups were determined by ANOVA as described in the figure legends.

EGFR L858R S784F = biological target: T22, EGFR L858R S784F (Homo sapiens, UniProt P00533, L858R/S784F); details: Classical-Like, 72 hours
T22 construct: expressed in transfected cells; host or cells: Ba/F3 cells, retroviral pBabe-Puro vector (vector made by GeneScript from EGFR L858R)
Experimental: as §4, §2, §5

EGFR S768dupSVD V769M = biological target: T23, EGFR S768dupSVD V769M (Homo sapiens, UniProt P00533, INS768MDS/V769M); details: Ex20, 72 hours
T23 construct: expressed in transfected cells; host or cells: Ba/F3 cells, retroviral pBabe-Puro vector (vector made by GeneScript from EGFR S768dupSVD, c.2305G > A)

EGFR R776C = biological target: T24, EGFR R776C (Homo sapiens, UniProt P00533, R776C)
T24 construct: host or cells: Ba/F3
Experimental: as §1, §2, §3

EGFR Ex19del T790M = biological target: T25, EGFR Ex19del T790M (Homo sapiens, UniProt P00533, DEL746-750/T790M); details: T790M-like-3S, 72 hours
T25 construct: expressed in transfected cells; host or cells: Ba/F3

SMILES | ratio of IC50 for cells with mutant EGFR to IC50 for cells with wildtype EGFR (Mut/WT) (EGFR L858R/T790M) | ratio of IC50 for cells with mutant EGFR to IC50 for cells with wildtype EGFR (Mut/WT) (EGFR L858R/T790M/C797S) | ratio of IC50 for cells with mutant EGFR to IC50 for cells with wildtype EGFR (Mut/WT) (EGFR A763insFQEA) | ratio of IC50 for cells with mutant EGFR to IC50 for cells with wildtype EGFR (Mut/WT) (EGFR Ex19del T790M L718V) | ratio of IC50 for cells with mutant EGFR to IC50 for cells with wildtype EGFR (Mut/WT) (EGFR L861R) | ratio of IC50 for cells with mutant EGFR to IC50 for cells with wildtype EGFR (Mut/WT) (EGFR L833F) | ratio of IC50 for cells with mutant EGFR to IC50 for cells with wildtype EGFR (Mut/WT) (EGFR L858R) | ratio of IC50 for cells with mutant EGFR to IC50 for cells with wildtype EGFR (Mut/WT) (EGFR T725M) | ratio of IC50 for cells with mutant EGFR to IC50 for cells with wildtype EGFR (Mut/WT) (EGFR L718Q T790M) | ratio of IC50 for cells with mutant EGFR to IC50 for cells with wildtype EGFR (Mut/WT) (EGFR G719A T790M) | ratio of IC50 for cells with mutant EGFR to IC50 for cells with wildtype EGFR (Mut/WT) (EGFR Ex19del) | ratio of IC50 for cells with mutant EGFR to IC50 for cells with wildtype EGFR (Mut/WT) (EGFR L858R T790M L718V) | ratio of IC50 for cells with mutant EGFR to IC50 for cells with wildtype EGFR (Mut/WT) (EGFR Ex19del T790M C797S) | ratio of IC50 for cells with mutant EGFR to IC50 for cells with wildtype EGFR (Mut/WT) (EGFR L858R S784F) | ratio of IC50 for cells with mutant EGFR to IC50 for cells with wildtype EGFR (Mut/WT) (EGFR S768dupSVD V769M) | ratio of IC50 for cells with mutant EGFR to IC50 for cells with wildtype EGFR (Mut/WT) (EGFR Ex19del T790M) | also measured
C=CC(=O)Nc1cc(Nc2nccc(-c3c[nH]c4ccccc34)n2)c(OC)cc1N(C)CCN(C)C [AZ5104] | 0.1777 | 78.11 | 0.3966 | 0.7041 | 0.2335 | 0.7284 | 0.1965 | 0.959 | 26.6 | 0.1667 | 0.03035 | 19.66 | 56.35 | 0.0429 | 0.3864 | 0.1837 | ratio of the IC50 value for cells with a PACC EGFR mutation to the IC50 value for cells with wildtype EGFR (EGFR Ex19del G796S; Ba/F3 cells, EGFR Ex19del G796S (PACC), Mut/WT): 0.8807; ratio of the IC50 value for cells with a PACC EGFR mutation to the IC50 value for cells with wildtype EGFR (EGFR Ex19del G724S; Ba/F3 cells, EGFR Ex19del G724S (PACC), Mut/WT): 3.178; ratio of the IC50 value for cells with a PACC EGFR mutation to the IC50 value for cells with wildtype EGFR (EGFR G719A L861Q; Ba/F3 cells, EGFR G719A L861Q (PACC), Mut/WT): 0.8044; ratio of the IC50 value for cells with a PACC EGFR mutation to the IC50 value for cells with wildtype EGFR (EGFR S768I V774M; Ba/F3 cells, EGFR S768I V774M (PACC), Mut/WT): 0.5809; ratio of the IC50 value for cells with a PACC EGFR mutation to the IC50 value for cells with wildtype EGFR (EGFR R776H; Ba/F3 cells, EGFR R776H (PACC), Mut/WT): 3.409; ratio of the IC50 value for cells with a PACC EGFR mutation to the IC50 value for cells with wildtype EGFR (EGFR I740dupIPVAK; Ba/F3 cells, EGFR I740dupIPVAK (PACC), Mut/WT): 2.234; ratio of the IC50 value for cells with a PACC EGFR mutation to the IC50 value for cells with wildtype EGFR (EGFR E709_T710del insD; Ba/F3 cells, EGFR E709_T710del insD (PACC), Mut/WT): 0.03063; ratio of the IC50 value for cells with a PACC EGFR mutation to the IC50 value for cells with wildtype EGFR (EGFR L858R L718Q; Ba/F3 cells, EGFR L858R L718Q (PACC), Mut/WT): 1.635; ratio of the IC50 value for cells with a PACC EGFR mutation to the IC50 value for cells with wildtype EGFR (EGFR L718Q; Ba/F3 cells, EGFR L718Q (PACC), Mut/WT): 11.32; ratio of the IC50 value for cells with a PACC EGFR mutation to the IC50 value for cells with wildtype EGFR (EGFR R776C; Ba/F3 cells, EGFR R776C (PACC), Mut/WT): 0.1019
CN(C)C/C=C/C(=O)Nc1cc2c(Nc3ccc(Cl)c(Br)c3)ncnc2cn1 [Tarlox-TKI] | 11.95 | 20.7 | 0.05463 | 154.4 | 0.01926 | 0.07887 | 0.1181 | 0.004861 | 16.46 | 0.6778 | 0.01427 | 151.6 | 33.62 | 0.001643 | 0.33 | 14.38 | ratio of IC50 for cells with mutant EGFR to IC50 for cells with wildtype EGFR (Mut/WT) (EGFR Ex19del G796S; PACC, Ex19del G796S, Ba/F3, 72 hours): 25.15; ratio of IC50 for cells with mutant EGFR to IC50 for cells with wildtype EGFR (Mut/WT) (EGFR Ex19del G724S; PACC, Ex19del G724S, Ba/F3, 72 hours): 2.658; ratio of IC50 for cells with mutant EGFR to IC50 for cells with wildtype EGFR (Mut/WT) (EGFR G719A L861Q; PACC, G719A L861Q, Ba/F3, 72 hours): 0.4976; ratio of IC50 for cells with mutant EGFR to IC50 for cells with wildtype EGFR (Mut/WT) (EGFR S768I V774M; PACC, S768I V774M, Ba/F3, 72 hours): 0.2117; ratio of IC50 for cells with mutant EGFR to IC50 for cells with wildtype EGFR (Mut/WT) (EGFR R776H; PACC, R776H, Ba/F3, 72 hours): 0.1639; ratio of IC50 for cells with mutant EGFR to IC50 for cells with wildtype EGFR (Mut/WT) (EGFR I740dupIPVAK; PACC, I740dupIPVAK, Ba/F3, 72 hours): 0.5725; ratio of IC50 for cells with mutant EGFR to IC50 for cells with wildtype EGFR (Mut/WT) (EGFR E709_T710del insD; PACC, E709_T710del insD, Ba/F3, 72 hours): 0.782; ratio of IC50 for cells with mutant EGFR to IC50 for cells with wildtype EGFR (Mut/WT) (EGFR L858R L718Q; PACC, L858R L718Q, Ba/F3, 72 hours): 0.3655; ratio of IC50 for cells with mutant EGFR to IC50 for cells with wildtype EGFR (Mut/WT) (EGFR L718Q; PACC, L718Q, Ba/F3, 72 hours): 0.06989; ratio of IC50 for cells with mutant EGFR to IC50 for cells with wildtype EGFR (Mut/WT) (EGFR R776C; PACC, R776C, Ba/F3, 72 hours): 0.02009
